PubChem BioAssay (NCI)
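How tested: cells in 96-well plates exposed to compound for 48 hours at five concentrations. The concentration for 50% growth inhibition is given as GI50. TGI is the concentration that stops growth completely.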

How the values were obtained:
Assay in all cases: growth of human tumour cells (NCI), 48 h
[1] = system: HT29 colon
[2] = system: SR leukemia
[3] = system: SF-539 CNS
[4] = system: LOX IMVI melanoma
[5] = system: RXF 393 renal
[6] = system: SK-MEL-28 melanoma
[7] = system: NCI-H23 lung
[8] = system: M14 melanoma
[9] = system: MDA-MB-435
[10] = system: TK-10 renal
[11] = system: HOP-92 NSCLC
[12] = system: BT-549 breast
[13] = system: SNB-75 CNS
[14] = system: SF-268 CNS
[15] = system: OVCAR-3 ovarian
[16] = system: A549 NSCLC
[17] = system: OVCAR-4 ovarian
[18] = system: MCF7 breast
[19] = system: SW-620 colon
[20] = system: UO-31 renal
[21] = system: SK-MEL-2 melanoma
[22] = system: DU-145 prostate
[23] = system: HCT-116 colon
[24] = system: PC-3 prostate
[25] = system: NCI-H522 lung
[26] = system: ACHN renal
[27] = system: COLO 205 colon
[28] = system: EKVX NSCLC
[29] = system: MOLT-4 leukemia
[30] = system: T-47D breast
[31] = system: IGROV1 ovarian
[32] = system: OVCAR-5 ovarian
[33] = system: UACC-257 melanoma
[34] = system: 786-0 renal
[35] = system: HCT-15 colon
[36] = system: HS 578T breast
[37] = system: HOP-62 NSCLC
[38] = system: SNB-19 CNS
[39] = system: HCC-2998 colon
[40] = system: SF-295 CNS
[41] = system: MDA-MB-231 breast
[42] = system: NCI-H460 lung
[43] = system: KM12 colon
[44] = system: UACC-62 melanoma
[45] = system: HL-60(TB) leukemia
[46] = system: SK-MEL-5 melanoma
[47] = system: SN12C renal
[48] = system: SK-OV-3 ovarian
[49] = system: MALME-3M melanoma
[50] = system: NCI/ADR-RES ovarian
[51] = system: CCRF-CEM leukemia
[52] = system: OVCAR-8 ovarian
[53] = system: K-562 leukemia
[54] = system: RPMI-8226 leukemia
[55] = system: A498 renal
[56] = system: U251 CNS
[57] = system: NCI-H226 lung
[58] = system: CAKI-1 renal

Cc1cc(Cl)nc(N(CCNc2ccnc3cc(Cl)ccc23)Cc2ccco2)n1
GI50 [1]: 2.11 µM
TGI [1]: 6.83 µM
GI50 [2]: 1.81 µM
TGI [2]: 4.39 µM
GI50 [3]: 1.87 µM
TGI [3]: 3.48 µM
GI50 [4]: 1.72 µM
TGI [4]: 3.2 µM
GI50 [5]: 1.24 µM
TGI [5]: 2.89 µM
GI50 [6]: 1.74 µM
TGI [6]: 3.33 µM
GI50 [7]: 2.57 µM
TGI [7]: 9.65 µM
GI50 [8]: 1.88 µM
TGI [8]: 3.63 µM
GI50 [9]: 1.76 µM
TGI [9]: 3.4 µM
GI50 [10]: 2.62 µM
TGI [10]: 8.39 µM
GI50 [11]: 1.2 µM
TGI [11]: 3.55 µM
GI50 [12]: 1.66 µM
TGI [12]: 3.3 µM
GI50 [13]: 1.57 µM
TGI [13]: 4.18 µM
GI50 [14]: 3.22 µM
TGI [14]: 13.2 µM
GI50 [15]: 1.75 µM
TGI [15]: 3.32 µM
GI50 [16]: 3.1 µM
TGI [16]: 13.1 µM
GI50 [17]: 1.67 µM
TGI [17]: 3.38 µM
GI50 [18]: 1.69 µM
TGI [18]: 3.36 µM
GI50 [19]: 1.85 µM
TGI [19]: 4.45 µM
GI50 [20]: 1.42 µM
TGI [20]: 2.93 µM
GI50 [21]: 2.18 µM
TGI [21]: 4.8 µM
GI50 [22]: 1.9 µM
TGI [22]: 3.8 µM
GI50 [23]: 1.58 µM
TGI [23]: 3.2 µM
GI50 [24]: 2.03 µM
TGI [24]: 5.49 µM
GI50 [25]: 1.76 µM
TGI [25]: 3.61 µM
GI50 [26]: 1.71 µM
TGI [26]: 3.4 µM
GI50 [27]: 1.64 µM
TGI [27]: 3.23 µM
GI50 [28]: 2.68 µM
TGI [28]: 12.1 µM
GI50 [29]: 2.09 µM
TGI [29]: 4.65 µM
GI50 [30]: 1.66 µM
TGI [30]: 3.61 µM
GI50 [31]: 1.75 µM
TGI [31]: 3.66 µM
GI50 [32]: 2.72 µM
TGI [32]: 8.11 µM
GI50 [33]: 1.97 µM
TGI [33]: 4.16 µM
GI50 [34]: 1.65 µM
TGI [34]: 3.1 µM
GI50 [35]: 1.61 µM
TGI [35]: 3.69 µM
GI50 [36]: 2.27 µM
TGI [36]: 6.32 µM
GI50 [37]: 2.04 µM
TGI [37]: 4.79 µM
GI50 [38]: 3.54 µM
TGI [38]: 16.2 µM
GI50 [39]: 2.03 µM
TGI [39]: 4.22 µM
GI50 [40]: 1.5 µM
TGI [40]: 3.01 µM
GI50 [41]: 1.85 µM
TGI [41]: 3.76 µM
GI50 [42]: 1.84 µM
TGI [42]: 3.94 µM
GI50 [43]: 2.01 µM
TGI [43]: 4.67 µM
GI50 [44]: 1.69 µM
TGI [44]: 3.27 µM
GI50 [45]: 1.65 µM
TGI [45]: 3.59 µM
GI50 [46]: 1.67 µM
TGI [46]: 3.06 µM
GI50 [47]: 1.98 µM
TGI [47]: 3.95 µM
GI50 [48]: 2.56 µM
TGI [48]: 7.44 µM
GI50 [49]: 1.96 µM
TGI [49]: 3.57 µM
GI50 [50]: 1.74 µM
TGI [50]: 4 µM
GI50 [51]: 1.92 µM
TGI [51]: 5.04 µM
GI50 [52]: 1.93 µM
TGI [52]: 4.29 µM
GI50 [53]: 1.54 µM
TGI [53]: 3.35 µM
GI50 [54]: 1.76 µM
TGI [54]: 4.27 µM
GI50 [55]: 1.74 µM
TGI [55]: 5.51 µM
GI50 [56]: 1.64 µM
TGI [56]: 3.09 µM

O=C(Nc1ccc(OC(F)(F)Cl)cc1)c1cnc(N2CC[C@@H](O)C2)c(-c2ccn[nH]2)c1
GI50 [1]: 3.12 µM
TGI [1]: 12.1 µM
GI50 [2]: 10.8 µM
TGI [2]: 50.9 µM
GI50 [3]: 13.6 µM
TGI [3]: 29.1 µM
GI50 [4]: 4.84 µM
TGI [4]: 18.7 µM
GI50 [5]: 15.8 µM
TGI [5]: 35.6 µM
GI50 [6]: 11.8 µM
TGI [6]: 24.9 µM
GI50 [7]: 13.6 µM
TGI [7]: 33.5 µM
GI50 [8]: 4.52 µM
TGI [8]: 18.3 µM
GI50 [9]: 7.3 µM
TGI [9]: 21.7 µM
GI50 [11]: 17.3 µM
TGI [11]: 41.3 µM
GI50 [12]: 10.6 µM
TGI [12]: 24.7 µM
GI50 [13]: 12.7 µM
TGI [13]: 26.5 µM
GI50 [14]: 15.4 µM
TGI [14]: 39.2 µM
GI50 [15]: 15 µM
TGI [15]: 41.4 µM
GI50 [16]: 10.5 µM
TGI [16]: 33.6 µM
GI50 [17]: 7.07 µM
TGI [17]: 43.5 µM
GI50 [18]: 10 µM
TGI [18]: 32.8 µM
GI50 [19]: 5.84 µM
TGI [19]: 20.5 µM
GI50 [20]: 11.9 µM
TGI [20]: 31 µM
GI50 [21]: 12.9 µM
TGI [21]: 29.5 µM
GI50 [22]: 13.2 µM
TGI [22]: 43.3 µM
GI50 [57]: 11.8 µM
TGI [57]: 30 µM
GI50 [23]: 10.8 µM
TGI [23]: 23.9 µM
GI50 [24]: 16.3 µM
TGI [24]: 48.4 µM
GI50 [25]: 12.6 µM
TGI [25]: 31.6 µM
GI50 [26]: 5.03 µM
TGI [26]: 28.3 µM
GI50 [27]: 5.58 µM
TGI [27]: 19.7 µM
GI50 [28]: 8.63 µM
TGI [28]: 28.7 µM
GI50 [29]: 9.23 µM
TGI [29]: 31.7 µM
GI50 [30]: 6.12 µM
TGI [30]: 46.7 µM
GI50 [31]: 15.2 µM
TGI [31]: 41.1 µM
GI50 [32]: 12.9 µM
TGI [32]: 34.2 µM
GI50 [58]: 19.4 µM
TGI [58]: 63 µM
GI50 [33]: 10.5 µM
TGI [33]: 22.6 µM
GI50 [34]: 15 µM
TGI [34]: 32.8 µM
GI50 [35]: 7.61 µM
TGI [35]: 24.2 µM
GI50 [36]: 17.6 µM
TGI [36]: 49.3 µM
GI50 [37]: 11.4 µM
TGI [37]: 28.4 µM
GI50 [38]: 12.9 µM
TGI [38]: 28.2 µM
GI50 [39]: 8.41 µM
TGI [39]: 22.2 µM
GI50 [40]: 10.6 µM
TGI [40]: 26 µM
GI50 [41]: 4.73 µM
TGI [41]: 21.5 µM
GI50 [42]: 10.1 µM
TGI [42]: 25.4 µM
GI50 [43]: 9.26 µM
TGI [43]: 24.2 µM
GI50 [44]: 5.07 µM
TGI [44]: 19.5 µM
GI50 [45]: 22.3 µM
TGI [45]: 54 µM
GI50 [46]: 10.7 µM
TGI [46]: 22.7 µM
GI50 [47]: 12.6 µM
TGI [47]: 28.9 µM
GI50 [48]: 20.5 µM
TGI [48]: 44.9 µM
GI50 [49]: 12.5 µM
TGI [49]: 26 µM
GI50 [50]: 24.9 µM
TGI [50]: 79.6 µM
GI50 [51]: 11.3 µM
TGI [51]: 43.2 µM
GI50 [52]: 10.8 µM
TGI [52]: 54.6 µM
TGI [53]: 11 µM
GI50 [54]: 9.44 µM
TGI [54]: 39.9 µM
GI50 [55]: 14.8 µM
TGI [55]: 31.2 µM
GI50 [56]: 11.8 µM
TGI [56]: 26.6 µM
